Results from US20110319427A1 (priority 2009, published 2011).
Peptide text beside a SMILES is read from it. * marks the point of attachment. Cbz = O=C(OCc1ccccc1)*

What was measured:
THP1/BTZ200 [1] = assay: cells; conditions: Homo sapiens, THP-1, 72 h, read-out: IC50 5AHQ
Description: (§5) Cell lines. Human multiple myeloma (MM) and solid tumor cell lines were grown in Iscove's Modified Dulbecco's Medium (IMDM). […] These cells were maintained in bortezomib up to at least 7 days prior to the experiment. Media were supplemented with 10% fetal calf serum (FCS), 100 ug/mL penicillin, and 100 units/mL streptomycin (all from Hyclone, Logan, Utah).
(§6) After incubation, cell viability was measured by trypan blue staining.

[2] = test system: proteasome in protein extracts from MDAY-D2 leukemia cells; assay: proteasome activity in cell extracts (Suc-LLVY-AMC); format: biochemical, murine; conditions: added to extracts derived from MDAY-D2 leukemia cells
Description: A) Protein extracts from MDAY-D2 leukemia cells were treated with aliquots of compounds from a focused chemical library (final concentration 5 μM).

THP1/BTZ50 [3] = assay: cells; conditions: Homo sapiens, THP-1, 72 h, read-out: IC50 5AHQ
Description: as §5, §6

LD50 in mice = conditions: mouse, in vivo
[4] = test system: bortezomib-resistant THP1 leukemia cells (β5 proteasome subunit mutated and over-expressed); conditions: 72 hours, trypan blue staining
Description: as §5, §6

myeloma cell lines = assay: cell viability MTS assay, myeloma cell lines; format: cell-based, human; conditions: 72 hours, in 7/7 myeloma cell lines
LP1 myeloma cell lines = assay: ubiquitinated proteins by immunoblotting; format: cell-based, human; conditions: 24 hours after treatment
Description: Whole cell lysates were prepared from myeloma cells as described previously. Briefly, cells were washed with phosphate-buffered saline (PBS, pH 7.4) and re-suspended in lysis buffer [10 mM Tris (pH 7.4), 150 mM NaCl, 0.1% Triton X-100, 0.5% sodium deoxycholate, and 5 mM EDTA] containing protease inhibitors (Complete tablets, Roche, Indianapolis, Ind.). Protein concentrations were determined by the Bradford assay. Equal amounts of protein were subjected to SDS-PAGE gels followed by transfer to nitrocellulose membranes. Membranes were probed with rabbit anti-human polyclonal anti-ubiquitin (1:1000 v/v) (Calbiochem, San Diego, Calif.), or mouse monoclonal anti-beta actin (1:10,000 v/v) (Sigma) followed by secondary horseradish peroxidase (HRP)-conjugated goat anti-mouse (1:10,000 v/v) or anti-rabbit IgG (1:5,000 v/v) (Amersham Bioscience UK, Little Chalfont, England). Detection was performed by the Enhanced Chemical Luminescence (ECL) method (Pierce, Rockford, Ill.).
Twenty four hours after treatment, the abundance of ubiquitinated proteins in the cells was measured by immunoblotting.

[5] = test system: T1, proteasomes isolated from rabbit reticulocytes; format: biochemical; conditions: Lineweaver-Burk plot analysis
T1 construct: other: Lineweaver-Burk plot analysis; other: at the Fa 10; other: at the Fa 25; other: at the Fa 50
Description: (§1) Data represent the mean±SD.
(§2) After incubation, cleavage of the fluorogenic substrate Z-Leu-Leu-Glu-AMC was measured as above. […] The approximate binding sites of bortezomib that is located inside the catalytic chamber are also indicated.
(§3) Proteasome complexes were isolated from rabbit reticulocytes and T. acidophilum as described previously.
(§4) Data are expressed as mean values±SD. The statistical significance was computed with Student's t-test. […] Isobologram analysis was performed with CalcuSyn software (Biosoft, Ferguson, Mo., and Cambridge, UK). A combination index (CI) less than 1.0 indicated synergism.

[6] = molecular target: T2, proteasomes isolated from rabbit reticulocytes; format: biochemical; conditions: Lineweaver-Burk plot analysis, noncompetitive model
T2 construct: Ki
Description: as §1, §2, §3, §4

THP1/BTZ500 [7] = assay: cells; conditions: Homo sapiens, THP-1, 72 h, read-out: IC50 5AHQ
Description: as §5, §6

[8] = molecular target: T3, proteasome isolated from archaebacterium T. acidophilum (Thermoplasma acidophilum, UniProt P25156); assay: enzymatic activity of purified T. acidophilum proteasome (Suc-LLVY-AMC cleavage); format: biochemical
T3 construct: made in house
T3 sequence (P25156 whole entry): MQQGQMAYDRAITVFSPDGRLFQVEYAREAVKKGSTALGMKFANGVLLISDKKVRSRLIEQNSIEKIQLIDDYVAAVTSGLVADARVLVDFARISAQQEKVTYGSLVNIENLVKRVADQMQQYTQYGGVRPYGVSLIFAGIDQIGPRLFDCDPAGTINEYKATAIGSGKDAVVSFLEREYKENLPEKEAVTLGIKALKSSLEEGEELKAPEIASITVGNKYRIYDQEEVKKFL
T3 sequence (P28061 9-211 partner): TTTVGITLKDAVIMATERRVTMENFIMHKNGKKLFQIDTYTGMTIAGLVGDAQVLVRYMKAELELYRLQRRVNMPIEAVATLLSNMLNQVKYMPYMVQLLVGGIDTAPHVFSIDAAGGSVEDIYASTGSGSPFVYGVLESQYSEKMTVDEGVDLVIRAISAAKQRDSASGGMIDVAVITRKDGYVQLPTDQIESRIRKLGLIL
Excerpt: Data represent the mean±SD. A Lineweaver-Burk plot is presented as a fit to a noncompetitive model of inhibition.
as §3

[9] = test system: normal hematopoietic cells; assay: viability of normal hematopoietic cells (PBSC); format: cell-based, human
Description: Forty-eight hours after treatment, cell viability was measured by the MTS assay. Data represent the mean±SD percent viability compared to buffer treated cells. D) Primary acute myeloid leukemia (AML) blasts (n=4), CLL (n=5) or normal peripheral blood stem cells (PBSC) (n=3) were obtained from the peripheral blood of consenting patients with AML, CLL or donors of PBSC for allotransplantation, respectively. […] Data represent the mean±SD percentage of viable cells compared to buffer treated cells.
Primary cells. Primary human acute myeloid leukemia (AML) and chronic lymphocytic leukemia (CLL) samples were isolated from peripheral blood samples from consenting patients with AML and CLL, respectively, who had at least 80% malignant cells among the mononuclear cells in their peripheral blood. Primary normal hematopoietic cells were obtained from healthy volunteers donating peripheral blood mononuclear stem cells (PBSC) for allotransplantation. […]
Cell viability was assessed by the MTS (Promega, Madison, Wis.) and Alamar Blue Fluorescence assays (Invitrogen, Carlsbad, Calif.) according to manufacturer's instructions and as previously described [14]. Apoptosis was measured by Annexin V-FITC (Biovision Research Products, Mountain View, Calif.) staining and flow cytometry according to manufacturer's instructions and as previously described.

[10] = test system: NFkappaB p50 subunit DNA binding in MDAY-D2 cells; assay: NFkappaB activity (p50 DNA-binding ELISA); format: cell-based, murine; conditions: 24 hours 5AHQ, with and without TNF-alpha
Description: NFkappaB activity was measured using the Trans-AM NFkappaB p65 transcription factor assay kit (Active Motif, Carlsbad, Calif.) according to the manufacturer's instructions. […] Nuclear extracts were prepared using the Nuclear Extract kit (Active Motif, Carlsbad, Calif.) according to the manufacturer's instructions. Binding of the NFkappaB transcription factor subunit p50 to the DNA consensus sequence (5′-[…]-3′) cross linked to 96-well plates was measured using enzyme-linked immunosorbent assay (ELISA) technology with absorbance reading according to the manufacturer's protocol.

[11] = test system: chymotrypsin-like activity of the proteasome in leukemia, myeloma, and solid tumor cell lines; assay: proteasome activity after treatment of intact cells (Suc-LLVY-AMC); conditions: intact cells treated 24 hours, then lysed
Description: A) Myeloma, leukemia, and solid tumor cell lines were treated with increasing concentrations of 5AHQ. Twenty hours after treatment, cells were lysed and the preferential chymotrypsin-like substrate Suc-LLVY-AMC was added. The generation of free AMC was measured over time with a fluorescent spectrophotometric plate reader as described in the Materials and Methods. Data represent the mean±SD maximal rate of proteasomal activity expressed as a percentage of buffer treated cells.
To measure the effects of 5AHQ on the enzymatic activity of the proteasome in intact cells, solid tumor, leukemia and myeloma cell lines were treated with increasing concentrations of 5AHQ. Twenty hours after treatment, cells were lysed in 50 mM HEPES pH 7.5, 150 mM NaCl and 1% Triton X-100, and 2 mM ATP. To equal protein concentrations, the proteasome fluorogenic substrate, Suc-LLVY-AMC, was added and the generation of free AMC was measured over time with a fluorescent spectrophotometric plate reader as above.
Leukemia, myeloma, and solid tumor cell lines were treated with increasing concentration of 5AHQ for 24 hours. After treatment, cells were harvested, lysed, and the chymotrypsin-like activity of the proteasome was measured by monitoring the rate of cleavage of the fluorescent substrate Suc-LLVY-AMC.

solid tumor cell lines = assay: cell viability MTS assay, solid tumor cell lines; format: cell-based, human; conditions: 72 hours, in 3/10 solid tumor cell lines
leukemia cell lines = assay: cell viability MTS assay, leukemia cell lines; format: cell-based, human and murine; conditions: 72 hours, in 6/10 leukemia cell lines
[12] = molecular target: T4, α7-α7 half-proteasome of the T. acidophilum 20S proteasome (Thermoplasma acidophilum, UniProt P25156); assay: inhibitor binding to the proteasome by NMR; conditions: 50° C., methyl-labelled α7-α7
T4 construct: His-tag (N, cleaved yes); made in house
T4 sequence (P25156 whole entry): as the sequence (P25156 whole entry) above
Excerpt: The 20S proteasome from T. acidophilum was produced as described previously with the alpha and beta subunits co-expressed from 2 different plasmids (where the beta subunit carried a C terminal His-tag). Samples of the half-proteasome comprised of pairs of alpha-rings, a7-a7, were produced by overexpression of the a subunit that carried a N-terminal cleavable His-tag that was removed during purification. Methyl labelling of proteins for NMR analysis was achieved by growing cells in D2O based minimal medium with ^2H-^12C glucose as the carbon source. One hour before induction of protein expression, alpha-ketobutyric acid (60 mg/L) and alpha-ketoisovaleric acid (100 mg/L; only one of the two isopropyl methyls was ^13CH3 labeled, the other ^12CD3) were added to introduce ^13CH3 methyl groups in Ile, Leu and Val. Proteins were purified by Ni-NTA affinity resin and size exclusion chromatography.
NMR experiments with the (a7-a7) proteasome were performed on Varian 600 MHz spectrometers at 50° C. on samples that were ˜[…], 100% D2O, 25 mM potassium phosphate pH 6.8, 50 mM NaCl, 1 mM EDTA, 0.03% NaN3 and 2 mM DTT similar to previously described. NMR data was processed and analyzed with the nmrPipe/nmrDraw software package.

THP1/BTZ100 [13] = assay: cells; conditions: Homo sapiens, THP-1, 72 h, read-out: IC50 5AHQ
Description: as §5, §6

[14] = test system: CEM cells over-expressing the multidrug resistant pumps Pgp, BCRP, or MRP1; assay: cell death in bortezomib-resistant CEM cells; format: cell-based; conditions: CEM cells resistant to bortezomib by over-expression of Pgp
[15] = test system: OCI-AML2 or K562 human leukemia cells, MDAY-D2 murine leukemia cells in NOD-SCID mice; assay: mouse models of leukemia (xenograft), oral 5AHQ; format: in vivo
Description: Sublethally irradiated NOD/SCID mice were injected subcutaneously with U937 and K562 leukemia cells or intraperitoneally with MDAY-D2 leukemia cells. […] Eight (MDAY-D2) or ten (U937 and K562) days after tumor inoculation, mice were sacrificed, the subcutaneous or intraperitoneal tumor excised, and the weight of the tumors measured. The bars represent the median of the population. p values reflect the Mann-Whitney non-parametric test.
MDAY-D2 murine leukemia cells (5×10^5) were injected intraperitoneally into sublethally irradiated (3.5 Gy) NOD/SCID mice (Ontario Cancer Institute, Toronto, Canada). […] Mice were sacrificed, and the weight and volume of the intraperitoneal tumors were measured.
K562 leukemia cells (3×10^6) or U937 leukemia cells (2×10^6) were injected subcutaneously (s.c.) into the flank of sublethally irradiated NOD/SCID mice. […] Mice were then sacrificed, and the weight of the tumors was measured.
Sublethally irradiated NOD-SCID mice were injected subcutaneously with OCI-AML2 or K562 human leukemia cells or intraperitoneally with MDAY-D2 murine leukemia cells.

THP1/WT = conditions: data from Oerlemans et al, 2008; cited from earlier work
THP1/BTZ500 [16] = conditions: data from Oerlemans et al, 2008; cited from earlier work
THP1/BTZ100 [17] = conditions: data from Oerlemans et al, 2008; cited from earlier work
THP1/BTZ200 [18] = conditions: data from Oerlemans et al, 2008; cited from earlier work
THP1/BTZ50 [19] = conditions: data from Oerlemans et al, 2008; cited from earlier work
proteasome = conditions: non-competitive inhibitor binding the alpha subunits [8]; cited from earlier work

SMILES: Nc1ccc(O)c2ncccc12 [5AHQ, 5-amino-8-hydroxyquinoline]
- IC50 (THP1/BTZ200 [1]): 6.4 ± 0.7 µM
- inhibition of the enzymatic activity of the proteasome [2]: inhibited the enzymatic activity of the proteasome at low micromolar concentrations
- IC50 (THP1/BTZ50 [3]): 6.6 ± 0.4 µM
- LD50 (LD50 in mice): > 1000 mg/kg
- sensitivity to 5AHQ [4]: remained essentially fully sensitive to 5AHQ
- LD50 (myeloma cell lines): < 5 µM
- amount of ubiquitinated protein (LP1 myeloma cell lines): increased the amount of ubiquitinated protein
- mode of inhibition [5]: noncompetitively
- Ki [6]: 2.1 ± 0.18 µM
- IC50 (THP1/BTZ500 [7]): 6.6 ± 0.9 µM
- Ki [8]: 161 ± 4 µM
- mode of inhibition ([8]; Lineweaver-Burk plot): non-competitive kinetics
- concentration up to which not cytotoxic [9]: > 62.5 µM
- NFkappaB activity [10]: inhibited basal and TNF-alpha stimulated NFkappaB activity
- rate of Suc-LLVY-AMC cleavage [11]: inhibited the rate of Suc-LLVY-AMC cleavage
- LD50 (solid tumor cell lines): < 5 µM
- LD50 (leukemia cell lines): < 5 µM
- NMR spectral changes on binding [12]: clear spectral changes localized to residues Ile159, Val113, Val87, Val82, Leu112, Val89, Val134, Val24 and Leu136
- IC50 (THP1/BTZ100 [13]): 6.3 ± 0.4 µM
- sensitivity to 5AHQ-induced cell death [14]: remained equally sensitive to 5AHQ-induced cell death
- decrease of tumor weight and volume compared to control ([15]; 50 mg/kg/day by oral gavage, all 3 mouse models): at least 50%
- weight loss or gross organ toxicity ([15]; mouse, in vivo): without causing weight loss or gross organ toxicity

SMILES: CC(C)C[C@@H](C=O)NC(=O)[C@H](CC(C)C)NC(=O)[C@H](CC(C)C)NC(=O)OCc1ccccc1 [MG132, reference compound] (Cbz-Leu-Leu-Leu-aldehyde)
- mode of inhibition [5]: competitively

SMILES: CC(C)C[C@H](NC(=O)[C@H](Cc1ccccc1)NC(=O)c1cnccn1)B(O)O [bortezomib, [(1R)-3-Methyl-1-[[(2S)-1-oxo-3-phenyl-2-[(pyrazinylcarbonyl)amino]propyl]amino]butyl]boronic acid]
- RF BTZ (Resistance Factor) (THP1/WT): 1
- RF BTZ (Resistance Factor) (THP1/BTZ500 [16]): 237
- RF BTZ (Resistance Factor) (THP1/BTZ100 [17]): 79
- RF BTZ (Resistance Factor) (THP1/BTZ200 [18]): 129
- RF BTZ (Resistance Factor) (THP1/BTZ50 [19]): 45

SMILES: CCN(CC)CCCC(C)Nc1ccnc2cc(Cl)ccc12 (centres unmarked) [chloroquine]
- proteasome inhibition relative to 5AHQ (proteasome): much weaker proteasome inhibitor than 5AHQ
